Test results: paper PMC3388869, “High-affinity multivalent wheat germ agglutinin ligands by one-pot click reaction” (Beilstein Journal of Organic Chemistry, 2012)
Read-outs that look alike come from different tables or passages of the source.

Columns and labels:
WGA = test system: WGA; design: method as in PMID 1472499; settings: WGA–ligand interaction; cited from earlier work
[1] = biological target: T1, wheat germ agglutinin (WGA) (Triticum aestivum, UniProt P10969); assay: enzyme-linked lectin assay (ELLA): inhibition of binding of HRP-labeled WGA to covalently immobilized GlcNAc; design: species or system Triticum vulgaris; settings: for β (relative inhibitory potency): referenced to N,N'-diacetylchitobiose (β = 1); for fold lower IC50 value than GlcNAc: relative to GlcNAc
T1 sequence (P10969 1-171 limits assumed): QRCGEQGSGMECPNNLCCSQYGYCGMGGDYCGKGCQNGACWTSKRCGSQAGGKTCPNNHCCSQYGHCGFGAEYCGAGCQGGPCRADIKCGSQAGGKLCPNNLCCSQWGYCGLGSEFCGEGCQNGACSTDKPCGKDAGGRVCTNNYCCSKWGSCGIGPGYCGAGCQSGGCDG
Method: Binding potencies of compounds C1–C6, GlcNAc, and N,N’-diacetylchitobiose were determined by an ELLA employing covalently immobilized GlcNAc as a reference ligand, as described recently. GlcNAc-coated microtiter plates were incubated with mixtures of horseradish-peroxidase-labeled WGA (HRP-WGA) and synthetic WGA ligands in varying concentrations. After incubation, the plates were washed and the remaining HRP-WGA bound to the microtiter plates was quantified by a HRP-catalyzed color reaction. From these curves the concentrations at which the binding of HRP–WGA to GlcNAc is reduced by 50% (IC50 values) were determined as a measure of the potency of the synthesized inhibitors (Table 2). Also shown in Table 2 are the relative inhibitory potencies (β values) referenced to N,N’-diacetylchitobiose (β = 1).

[2] = inhibition of binding of HRP-labeled WGA to covalently immobilized GlcNAc, read-out: IC50

Compound | association constant K (WGA) | IC50 [1, 2] | β (relative inhibitory potency) [1] | fold lower IC50 value than GlcNAc [1] | IC50 ([1]; calculated per contained chitobiose, read-out: IC50 per contained chitobiose) | fold increased inhibition potency over the best divalent ligand C4 ([1]; relative to C4) | relative potency per chitobiose residue ([1]; relative to N,N'-diacetylchitobiose, per chitobiose residue)
CC(=O)N[C@@H]1[C@@H](O)[C@H](O)[C@@H](CO)O[C@H]1O [GlcNAc, N-acetylglucosamine, reference compound] | 2 × 10^2 to 1.3 × 10^3 M^–1 | 51000 µM | 1/82 | – | – | – | –
CC(=O)N[C@H]1[C@H](OCc2cn(Cc3ccccc3)nn2)O[C@H](CO)[C@@H](O[C@@H]2O[C@H](CO)[C@@H](O)[C@H](O)[C@H]2NC(C)=O)[C@@H]1O [C1] | – | 290 µM | 2.1 | – | – | – | –
CC(=O)N[C@H]1[C@H](OCc2cn(Cc3ccc(Cn4cc(CO[C@@H]5O[C@H](CO)[C@@H](O[C@@H]6O[C@H](CO)[C@@H](O)[C@H](O)[C@H]6NC(C)=O)[C@H](O)[C@H]5NC(C)=O)nn4)cc3)nn2)O[C@H](CO)[C@@H](O[C@@H]2O[C@H](CO)[C@@H](O)[C@H](O)[C@H]2NC(C)=O)[C@@H]1O [C3] | – | 1.9 µM | 330 | – | – | – | –
CC(=O)N[C@H]1[C@H](O[C@H]2[C@H](O)[C@@H](NC(C)=O)C(O)O[C@@H]2CO)O[C@H](CO)[C@@H](O)[C@@H]1O (stereo partly drawn) [N,N'-diacetylchitobiose, reference compound] | 5 × 10^3 to 2 × 10^4 M^–1 | 620 µM | 1 | 82 | – | – | –
CC(=O)N[C@H]1[C@H](OCc2cn(CCN(CCn3cc(CO[C@@H]4O[C@H](CO)[C@@H](O[C@@H]5O[C@H](CO)[C@@H](O)[C@H](O)[C@H]5NC(C)=O)[C@H](O)[C@H]4NC(C)=O)nn3)CCn3cc(CO[C@@H]4O[C@H](CO)[C@@H](O[C@@H]5O[C@H](CO)[C@@H](O)[C@H](O)[C@H]5NC(C)=O)[C@H](O)[C@H]4NC(C)=O)nn3)nn2)O[C@H](CO)[C@@H](O[C@@H]2O[C@H](CO)[C@@H](O)[C@H](O)[C@H]2NC(C)=O)[C@@H]1O [C6] | – | 0.22 µM | 2800 | 230000 | 0.66 µM | 2.8 | –
CC(=O)N[C@H]1[C@H](OCc2cn(CCCOCCCCOCCCn3cc(CO[C@@H]4O[C@H](CO)[C@@H](O[C@@H]5O[C@H](CO)[C@@H](O)[C@H](O)[C@H]5NC(C)=O)[C@H](O)[C@H]4NC(C)=O)nn3)nn2)O[C@H](CO)[C@@H](O[C@@H]2O[C@H](CO)[C@@H](O)[C@H](O)[C@H]2NC(C)=O)[C@@H]1O [C4] | – | 0.6 µM | – | – | – | – | 500
CC(=O)N[C@H]1[C@H](OCc2cn(Cc3cccc(Cn4cc(CO[C@@H]5O[C@H](CO)[C@@H](O[C@@H]6O[C@H](CO)[C@@H](O)[C@H](O)[C@H]6NC(C)=O)[C@H](O)[C@H]5NC(C)=O)nn4)c3)nn2)O[C@H](CO)[C@@H](O[C@@H]2O[C@H](CO)[C@@H](O)[C@H](O)[C@H]2NC(C)=O)[C@@H]1O [C2] | – | 1.3 µM | 480 | – | – | – | –
CC(=O)N[C@H]1[C@H](OCc2cn(CCCOCCOCCOCCCn3cc(CO[C@@H]4O[C@H](CO)[C@@H](O[C@@H]5O[C@H](CO)[C@@H](O)[C@H](O)[C@H]5NC(C)=O)[C@H](O)[C@H]4NC(C)=O)nn3)nn2)O[C@H](CO)[C@@H](O[C@@H]2O[C@H](CO)[C@@H](O)[C@H](O)[C@H]2NC(C)=O)[C@@H]1O [C5] | – | 0.72 µM | – | – | – | – | –
